# Source: US20260216182A1, “PYRIDAZINE NLRP3 INHIBITOR COMPOUND, PHARMACEUTICAL COMPOSITION, AND PREPARATION METHOD THEREFOR AND USE THEREOF” (CHANGCHUN GENESCIENCE PHARMACEUTICAL CO., LTD., priority 2022, published 2026)
# System: MSU-induced acute rat gouty arthritis model
# Test: MSU-induced rat acute gouty arthritis model
# Format: in vivo, SD rats
# Details: FIG. 1
# Experimental: Test Example 3 MSU-Induced Rat Gouty Arthritis Model Evaluation Test
# In this test, male SD rats were used to establish an acute gouty arthritis model by injecting 64 mg/mL sodium urate (MSU) crystal suspension into the right hind ankle joint cavity of the rats. The animals were randomly divided into normal control group, model control group, different dose groups of test compound, 7 rats in each group. The compound group was orally administered with the compound 1 h before and after modeling, and the normal control group and model control group were given an equal amount of vehicle. The foot circumference and foot diameter were measured before and 24 h after modeling.
smiles,measurement,setting,value
"CC#Cc1ccc2c(-c3ccc(Cl)cc3O)nnc(NC[C@H](O)CO)c2c1 [Compound 062, (S)-3-((4-(4-chloro-2-hydroxyphenyl)-7-(prop-1-yn-1-yl)phthalazin-1-yl)amino) propan-1,2-diol]",effect on ankle joint swelling compared with control compound,,significantly better than that of the control compound
same,ankle joint swelling,"oral, 1 h before and after modeling, 24 h after modeling",dose-dependent improvement in ankle joint swelling
